Reference: patent publication US12686668B2, “Leukotriene synthesis inhibitors” (Naegis Pharmaceuticals Inc., priority 2019, dated 2026)

Assay: Rat ocular distribution model, retina after topical drop
Assay type: in vivo
Details: Lewis rats, 10 μL topical drop
Protocol: Eye drops were prepared by adding compounds at a theoretical concentration of 10 mg/mL to a 2 mL microcentrifuge tube before adding a stir bar and the selected formulation that consisted of (w/v) hydroxypropyl β-cyclodextrin (Trappsol) (20%), hydroxyl propyl methylcellulose (0.5%) and EDTA (1.6 mM) in phosphate buffered saline. Tubes containing compound in eye drop formulation were heated to 60-65° C. and stirred at least 4 hours to overnight. The tubes were removed from the heat bath and centrifuged at 10,000 ref for 5 minutes to clear the solution of any residual drug not in solution. The supernatant was removed from the tubes and one 10 μL sample was removed for HPLC analysis of solubilized by HPLC using an ACE C18 column (4.5 mm×150 mm, 5 m), eluted with acetonitrile/methanol/water mixture with H3PO4, pH 3.5 (50:30:20) with a flow rate of 2.5 mL/min. The solubilized concentration of each compound was calculated by interpolation from a standard curve based on reference standards solubilized in methanol when the assay was validated.
Compounds were applied as a single 10 μL drop to rats and the aqueous humor, and the posterior segment of the eye (vitreous body and retina) were collected from each eye at the time point assigned after the eye was irrigated to remove any residual formulation present. Tissues were collected in pre-weighed collection tubes and the tissue weight was determined for each sample. An internal standard (IS) mixture containing a reference compound at a ratio of 1 μL to 4 mg tissue was added to samples, mixed and then diluted×4.25 in acetonitrile:methanol (9:1). Aqueous humour samples were vortex mixed for 10 s. The vitreous body & retina were vortex mixed 2 times each for 10 s, and further mixed for 6 min on a tabletop shaker at 750 rpm followed by final vortex mixing (10 s). All samples were centrifuged to pellet any particulate matter and the supernatant was transferred to LC vials. A 10 μL sample was then applied to the HPLC during LC/MS/MS analysis. A calibration curve for compounds (0.588-176.471 ng/mL) was prepared in rat plasma to estimate concentrations of compounds in each of the matrices analyzed using the area under curve (AUC) normalized to internal standard AUC for determining response. The assumption was made that 1 mg tissue is equivalent to 1 μL plasma. Concentrations measured in each tissue were then normalized to the amount of drug applied to account for differences in solubilized drug in each formulation. The average concentration and the standard deviation was determined based on “n”=number of eyes assessed, rather than the number of animals. […]

CCC(O)(CCc1ccc(Oc2nc3c(SC)cccc3s2)c(OC)c1)C(F)(F)F (stereo not shown) [Compound 104, 1-{3-methoxy-4-[(4-methylsulfanyl-1,3-benzothiazol-2-yl)oxy]phenyl}-3-(trifluoromethyl)pentan-3-ol]
Concentration of compound in retina 0.5 hr after administration per mg compound applied (Avg ± SD) n = 2: 3340 ± 1061 ng/mL per mg compound applied
